Assay results as given in patent US20260182217A1, “DISPLAY PANEL, ELECTRONIC DEVICE INCLUDING THE SAME, AND METHOD FOR MANUFACTURING THE DISPLAY PANEL” (priority 2024, published 2026).

Assay: physchem

A pKa of 5 was found for CCCCCCCCC(=O)O [A11] in this work.
